Patent US20250179059A1 (The Regents of the University of California, priority 2021, published 2025)
Read-outs that look alike come from different tables or passages of the source.

Columns and labels:
[1] = test system: human SKM-1 acute myeloid leukemia cells; assay: SKM-1 antiproliferation cell-based assay (ATPlite); details: Homo sapiens
Outline: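 Log-phase cells in RPMI 1640/15% FBS were seeded at 34722 cells/mL and exposed for 4 days to nine-concentration DMSO serial dilutions in triplicate. Viability was read as ATP luminescence (ATPlite 1step), and IC50 values came from variable-slope non-linear regression.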

[2] = biological target: T1, human BRD4 bromodomain II (Homo sapiens, UniProt O60885); assay: Bromodomain binding assay (AlphaScreen), BRD4 BDII
T1 construct: human BRD4 bromodomain II [based on Genbank NM_058243, residues 349-460]; host or cells: E. coli
Outline: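 Tagged BRD4 BDI or BDII constructs, expressed in E. coli, competed against a K5/K8/K12/K16-acetylated biotin-H4 peptide. Proximity signal between bead pairs after room-temperature incubations gave concentration-response curves, from which IC50 was derived.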

[3] = SKM-1, 96 h, SKM-1 antiproliferation assay, 4 days, Table C2
[4] = AlphaScreen assay, Table C2, read-out: BRD4 BDII IC50
[5] = SKM-1, SKM-1 antiproliferation assay
[6] = BRD4 BDII AlphaScreen assay, read-out: BRD4 BD2 IC50

Work on `Cn1ccn(-c2ccc(-c3cc(F)cc(-c4ccnc(N5CC(N)C6(CC6)C5)c4)c3O)cc2Cl)c1=O` (stereo not drawn) [Example 755, 1-(3′-(2-(7-amino-5-azaspiro[2.4]heptan-5-yl)pyridin-4-yl)-3-chloro-5′-fluoro-2′-hydroxy-[1,1′-biphenyl]-4-yl)-3-methyl-1H-imidazol-2(3H)-one] yielded a GI50 [1, 3] of 0.3 to 30 nM and an IC50 [2, 4] of 0.01 to 1 nM.

For `Cc1cc(-c2ccc(-n3ccn(C)c3=O)c(Cl)c2)c(O)c(-c2cnc(C)c(N3CCC4(CCCN4C(C)C)C3)c2)n1` (stereo not drawn) [Example 973, 1-(2-chloro-4-(3-hydroxy-5′-(1-isopropyl-1,7-diazaspiro[4.4]nonan-7-yl)-6,6′-dimethyl-[2,3′-bipyridin]-4-yl)phenyl)-3-methyl-1H-imidazol-2(3H)-one], the GI50 [1, 5] was 0.3 to 30 nM and the IC50 [2, 6] was 0.01 to 1 nM.

In the case of `Cn1ccn(-c2ccc(-c3cc(F)cc(-c4cc(-c5ccn[nH]5)nc(N5CCNCC5)c4)c3O)cc2Cl)c1=O` [Example 553, 1-(3-chloro-5′-fluoro-2′-hydroxy-3′-(2-(piperazin-1-yl)-6-(1H-pyrazol-5-yl)pyridin-4-yl)-[1,1′-biphenyl]-4-yl)-3-methyl-1H-imidazol-2(3H)-one], the GI50 [1, 3] is reported as 0.3 to 30 nM and the IC50 [2, 4] is reported as 1 to 10 nM.

With `CC1=CCN(c2ccc(-c3cc(F)cc(-c4ccnc(N5CCNCC5)c4)c3O)cc2Cl)C1=O` [Example 366, 1-(3-chloro-5′-fluoro-2′-hydroxy-3′-(2-(piperazin-1-yl)pyridin-4-yl)-[1,1′-biphenyl]-4-yl)-3-methyl-1,5-dihydro-2H-pyrrol-2-one] the GI50 [1, 3] was 30 to 300 nM and the IC50 [2, 4] was 1 to 10 nM.

Molecule `COc1ncc(-c2cc(F)cc(-c3ccc(-n4ccn(C)c4=O)c(Cl)c3)c2O)cc1N1CC2(CC2)[C@](C)(O)C1` [Example 875] has a GI50 [1, 5] of 0.3 to 30 nM and an IC50 [2, 6] of 0.01 to 1 nM.

Molecule `CC(=O)NC1CN(c2cc(-c3cc(F)cc(-c4ccc(-n5ccn(C)c5=O)c(Cl)c4)c3O)ccn2)CC12CC2` (stereo not drawn) [Example 767, N-(5-(4-(3′-chloro-5-fluoro-2-hydroxy-4′-(3-methyl-1-oxo-2,3-dihydro-1H-imidazol-1-yl)-[1,1′-biphenyl]-3-yl)pyridin-2-yl)-5-azaspiro[2.4]heptan-7-yl)acetamide] has a GI50 [1, 3] of 0.3 to 30 nM and an IC50 [2, 4] of 0.01 to 1 nM.

With `COc1ncc(-c2cc(F)cc(-c3ccc(-n4ccn(C)c4=O)c(Cl)c3)c2O)cc1N1CC[C@@]2(CCN2C(C)C)C1` [Example 902] the GI50 [1, 5] was 0.3 to 30 nM and the IC50 [2, 6] was 0.01 to 1 nM.

Molecule `Cn1ccn(-c2ccc(-c3cc(F)cc(-c4ccnc(N5CC[C@H](C(N)=O)C5)c4)c3O)cc2Cl)c1=O` [Example 760] has a GI50 [1, 3] of 30 to 300 nM and an IC50 [2, 4] of 0.01 to 1 nM.

With `Cn1ncn(-c2ccc(-c3cc(F)cc(-c4ccnc(N5CCNCC5)c4)c3O)cc2Cl)c1=O` [Example 462, 4-(3-chloro-5′-fluoro-2′-hydroxy-3′-(2-(piperazin-1-yl)pyridin-4-yl)-[1,1′-biphenyl]-4-yl)-1-methyl-1H-1,2,4-triazol-5(4H)-one] the GI50 [1, 3] was 30 to 300 nM and the IC50 [2, 4] was 1 to 10 nM.

For `C[C@@H]1CN(c2cncc(-c3cc(F)cc(-c4ccc(-n5ccn(C)c5=O)c(Cl)c4)c3O)c2)CCN1` [Example 467, (R)-1-(3-chloro-5′-fluoro-2′-hydroxy-3′-(5-(3-methylpiperazin-1-yl)pyridin-3-yl)-[1,1′-biphenyl]-4-yl)-3-methyl-1H-imidazol-2(3H)-one], the GI50 [1, 3] was 0.3 to 30 nM and the IC50 [2, 4] was 0.01 to 1 nM.

Molecule `Cc1cc(-c2ccc(-n3ccn(C)c3=O)c(Cl)c2)c(O)c(-c2ccnc(N3CC(F)(F)[C@](C)(O)C3)c2)n1` [Example 1037, (R)-1-(2-chloro-4-(2′-(3,3-difluoro-4-hydroxy-4-methylpyrrolidin-1-yl)-3-hydroxy-6-methyl-[2,4′-bipyridin]-4-yl)phenyl)-3-methyl-1,3-dihydro-2H-imidazol-2-one] has a GI50 [1, 5] of 0.3 to 30 nM and an IC50 [2, 6] of 1 to 10 nM.

`CN1CCN(c2ccc(-c3cccc(-c4cncc(N5CC6(CNC6)C5)c4)c3O)cc2Cl)C1=O` [Example 335, 1-(3′-(5-(2,6-diazaspiro[3.3]heptan-2-yl)pyridin-3-yl)-3-chloro-2′-hydroxy-[1,1′-biphenyl]-4-yl)-3-methylimidazolidin-2-one] showed a GI50 [1, 3] of 300 to 3000 nM and an IC50 [2, 4] of 1 to 10 nM.

`Cn1ccn(-c2ccc(-c3cc(F)cc(-c4ccnc(N5CCN(CC6CC6)CC5)c4)c3O)cc2Cl)c1=O` [Example 470, 1-(3-chloro-3′-(2-(4-(cyclopropylmethyl)piperazin-1-yl)pyridin-4-yl)-5′-fluoro-2′-hydroxy-[1,1′-biphenyl]-4-yl)-3-methyl-1H-imidazol-2(3H)-one] was tested, and the GI50 [1, 3] was 0.3 to 30 nM and the IC50 [2, 4] was 1 to 10 nM.

`Cn1cc(-c2cc(F)cc(-c3ccc(-n4ccn(C)c4=O)c(Cl)c3)c2O)cc(N2CCC3(CCCN3)C2)c1=O` (stereo not drawn) [Example 687, 5-(3′-chloro-5-fluoro-2-hydroxy-4′-(3-methyl-2-oxo-2,3-dihydro-1H-imidazol-1-yl)-[1,1′-biphenyl]-3-yl)-1-methyl-3-(1,7-diazaspiro[4.4]nonan-7-yl)pyridin-2(1H)-one] showed a GI50 [1, 3] of 0.3 to 30 nM and an IC50 [2, 4] of 0.01 to 1 nM.

For `Cn1ccn(-c2ccc(-c3cc(F)cc(-c4ccnc(N5CCS(=O)(=O)CC5)c4)c3O)cc2Cl)c1=O` [Example 707, 1-(3-chloro-3′-(2-(1,1-dioxidothiomorpholino)pyridin-4-yl)-5′-fluoro-2′-hydroxy-[1,1′-biphenyl]-4-yl)-3-methyl-1H-imidazol-2(3H)-one], the GI50 [1, 3] was 30 to 300 nM and the IC50 [2, 4] was 1 to 10 nM.

`CN1CCN(c2ccc(-c3cc(Cl)cc(-c4ccnc(N5CCNCC5)c4)c3O)cc2Cl)C1=O` [Example 295, 1-(3,5′-dichloro-2′-hydroxy-3′-(2-(piperazin-1-yl)pyridin-4-yl)-[1,1′-biphenyl]-4-yl)-3-methylimidazolidin-2-one] was tested, and the GI50 [1, 3] was 30 to 300 nM and the IC50 [2, 4] was 1 to 10 nM.

Molecule `[2H]C([2H])([2H])n1ccn(-c2ccc(-c3cc(F)cc(-c4ccnc(N5CCNCC5=O)c4)c3O)cc2Cl)c1=O` [Example 464, 1-(4-(3′-chloro-5-fluoro-2-hydroxy-4′-(3-deuteromethyl-2-oxo-2,3-dihydro-1H-imidazol-1-yl)-[1,1′-biphenyl]-3-yl)pyridin-2-yl)piperazin-2-one] has a GI50 [1, 3] of 30 to 300 nM and an IC50 [2, 4] of 0.01 to 1 nM.

With `CN[C@H]1CCN(c2cc(-c3cc(F)cc(-c4ccc(-n5ccn(C)c5=O)c(Cl)c4)c3O)cc3[nH]ncc23)C1` [Example 583] the GI50 [1, 3] was 0.3 to 30 nM and the IC50 [2, 4] was 1 to 10 nM.

Molecule `CN1CCN(c2ccc(-c3cc(F)cc(-c4ccnc(N5CCNC(C(F)(F)F)C5)c4)c3O)cc2Cl)C1=O` (stereo not drawn) [Example 444, 1-(3-chloro-5′-fluoro-2′-hydroxy-3′-(2-(3-(trifluoromethyl)piperazin-1-yl)pyridin-4-yl)-[1,1′-biphenyl]-4-yl)-3-methylimidazolidin-2-one] has a GI50 [1, 3] of 300 to 3000 nM and an IC50 [2, 4] of 10 to 100 nM.

For `Cn1ccn(-c2ccc(-c3cc(F)cc(-c4ccnc(N5CCN(C6CCOC6)CC5)c4)c3O)cc2Cl)c1=O` (stereo not drawn) [Example 618, 1-(3-chloro-5′-fluoro-2′-hydroxy-3′-(2-(4-(tetrahydrofuran-3-yl)piperazin-1-yl)pyridin-4-yl)-[1,1′-biphenyl]-4-yl)-3-methyl-1H-imidazol-2(3H)-one], the GI50 [1, 3] was 30 to 300 nM and the IC50 [2, 4] was 0.01 to 1 nM.

With `CC(=O)NCc1ccc(-c2cccc(-c3ccc(N4CCN(C)C4=O)c(Cl)c3)c2O)cc1N1CCNCC1` [Example 320, N-((3″-chloro-2′-hydroxy-4″-(3-methyl-2-oxoimidazolidin-1-yl)-3-(piperazin-1-yl)-[1,1′:3′,1″-terphenyl]-4-yl)methyl)acetamide] the GI50 [1, 3] was 30 to 300 nM and the IC50 [2, 4] was 1 to 10 nM.
